Where two headings read alike, the source gives them in different places.
Assays:
[1] = Cytotoxicity, cell growth (CC50) in HEL cells; format: cell-based; details: human, concentration reducing cell growth by 50%
[2] = test system: HEL cells; test: Cytotoxicity, cell morphology (MCC) in HEL cells; format: cell-based, human; details: minimum cytotoxic concentration causing microscopically detectable alteration of cell morphology
Source text: The cytotoxicity of the tested compounds toward the uninfected host cells was defined as the minimum cytotoxic concentration (MCC) that causes a microscopically detectable alteration of normal cell morphology.

[3] = test system: TK− VZV strain; test: microbe, parasite or virus in culture; format: cell-based, varicella-zoster virus (VZV) strain 07−1; details: concentration reducing virus plaque formation by 50%
[4] = test system: TK+ VZV strain; test: microbe, parasite or virus in culture; format: cell-based, varicella-zoster virus (VZV) strain Oka; details: concentration reducing virus plaque formation by 50%
[5] = test system: human T-lymphocyte (CEM) cells; test: Cytostatic activity, CEM cell proliferation; format: cell-based; details: CCRF-CEM, 72 h, read-out: IC50 CEM
Experimental: (§1) All assays were performed in 96-well microtiter plates. To each well were added (5–7.5) × 10^4 tumor cells and a given amount of the test compound. The cells were allowed to proliferate for 48 h (murine leukemia L1210 cells) or 72 h (human lymphocytic CEM and human cervix carcinoma HeLa cells) at 37 °C in a humidified CO2-controlled atmosphere. At the end of the incubation period, the cells were counted in a Coulter counter.

[6] = test system: murine leukemia (L1210) cells; test: Cytostatic activity, L1210 cell proliferation; format: cell-based; details: Mus musculus, read-out: IC50 L1210
Experimental: as §1

[7] = test system: L1210, CEM, HeLa and HMEC-1 cells; test: Cytostatic activity, overall statement on the tested cell lines; format: cell-based; details: naphthalimides devoid of the 1,2,3-triazole unit
Experimental: as §1

[8] = test system: human dermal microvascular endothelial HMEC-1 cells; test: Cytostatic activity, HMEC-1 cell proliferation; format: cell-based
[9] = test system: human cervix carcinoma cells (HeLa); test: Cytostatic activity, HeLa cell proliferation; format: cell-based; details: 72 h, read-out: IC50 HeLa
Experimental: as §1

[10] = Human alphaherpesvirus 3, HEL, read-out: Antiviral Activity EC50, TK− VZV Strain, HEL cell cultures
[11] = Human alphaherpesvirus 3, HEL, read-out: Antiviral Activity EC50, TK+ VZV Strain, HEL cell cultures
[12] = L1210, cell proliferation, 48 h
[13] = HMEC-1, cell proliferation, read-out: IC50 HMEC-1

| Compound | CC50 ([1]; HEL cells (uninfected)) [µM] | Cytotoxicity, Cell Morphology (MCC) [2] [μM] | EC50 [3, 10] [µM] | EC50 ([3]; read-out: Antiviral Activity EC50, TK− VZV Strain, HEL cell cultures) [µM] | EC50 [4, 11] [µM] | EC50 ([4]; read-out: Antiviral Activity EC50, TK+ VZV Strain, HEL cell cultures) [µM] | CC50 [1] [µM] | IC50 ([5]; cell proliferation) [µM] | IC50 [6, 12] [µM] | Cytostatic activity (in words) [7] | IC50 [8, 13] [µM] | IC50 ([9]; cell proliferation) [µM] | melting point [°C] | IC50 [5] [µM] | IC50 ([6]; L1210, 48 h) [µM] | IC50 ([8]; HMEC-1, read-out: IC50 HMEC-1) [µM] | IC50 [9] [µM] |
| --- | --- | --- | --- | --- | --- | --- | --- | --- | --- | --- | --- | --- | --- | --- | --- | --- | --- |
| Nc1nc2c(ncn2COCCO)c(=O)[nH]1 [Acyclovir] | > 440 | – | – | – | – | – | – | – | – | – | – | – | – | – | – | – | – |
| O=c1[nH]c(=O)n([C@H]2C[C@H](O)[C@@H](CO)O2)cc1/C=C/Br [Brivudin, reference compound] | – | >300 | 24.9 | 13.7 | 0.013 | 0.0078 | > 300 | – | – | – | – | – | – | – | – | – | – |
| C#CCN1C(=O)c2cccc3c(Br)ccc(c23)C1=O [Compound 8] | – | – | – | – | – | – | – | ≥ 250 | ≥ 250 | inactive | > 250 | > 250 | – | – | – | – | – |
| CCOP(=O)(CCCn1cc(CN2C(=O)c3cccc4cccc(c34)C2=O)nn1)OCC [Compound 14c, Diethyl 3-{4-[(1,3-Dioxo-1H-benzo[de]isoquinolin-2(3H)-yl)methyl]-1H-1,2,3-triazol-1-yl}propylphosphonate] | – | >100 | 64.5 | – | > 100 | – | – | – | – | – | – | – | 131 to 132 | 124 ± 19 | ≥ 250 | ≥ 250 | 172 ± 20 |
| CCOP(=O)(CC(O)Cn1cc(CN2C(=O)c3cccc4cc([N+](=O)[O-])cc(c34)C2=O)nn1)OCC (stereo not drawn) [Compound 16f, Diethyl 3-{4-[(5-Nitro-1,3-dioxo-1H-benzo[de]isoquinolin-2(3H)-yl)methyl]-1H-1,2,3-triazol-1-yl}-2-hydroxypropylphosphonate] | – | >100 | 91.5 | – | 56.7 | – | – | – | – | – | – | – | 176 to 177 | 71 ± 21 | 68 ± 11 | 155 ± 6 | 42 ± 21 |
| C#CCN1C(=O)c2cccc3cc([N+](=O)[O-])cc(c23)C1=O [Compound 11, 5-Nitro-2-(prop-2-yn-1-yl)-1H-benzo[de]isoquinoline-1,3(2H)-dione] | – | 100 | > 100 | – | 48.9 | – | – | 229 ± 18 | 177 ± 16 | inactive | > 250 | 109 ± 5 | 213 to 214 | – | – | – | – |
| CCOP(=O)(COCCn1cc(CN2C(=O)c3cccc4cc([N+](=O)[O-])cc(c34)C2=O)nn1)OCC [Compound 16g, Diethyl 2-{4-[(5-Nitro-1,3-dioxo-1H-benzo[de]isoquinolin-2(3H)-yl)methyl]-1H-1,2,3-triazol-1-yl}ethoxy-methylphosphonate] | – | >100 | > 100 | – | 50.2 | – | – | – | – | – | – | – | 89 to 90 | 79 ± 4 | 71 ± 1 | 148 ± 3 | 76 ± 8 |
